From patent US11596656B2, “Stem cell-produced microvesicles for treating tendon pathologies” (ALBERT EINSTEIN COLLEGE OF MEDICINE, priority 2016, dated 2023)
Counter-ions that a name gives are not always drawn.

How the values were obtained:
[1] = test system: MSCs grown on silk scaffolds; assay: Rho/Rock pathway and stress fiber disruption in MSCs grown on silk scaffolds; format: cell-based; details: treatment for 24 h
Excerpt: FIG. 6A-6C. Disruption of Rho/Rock Pathway signaling and stress fiber formation are required for tendon lineage determination. (6A) Immunocytochemistry of P-actin in MSCs grown either with no treatment or treated with Latrunculin A, Y-27632 and Blebbistatin for 7 days (blue=DAPI, green=P-actin). *P<0.05 for all treatments. (6B) mRNA expression and protein expression of Sex and mRNA expression of (6C) Coll al and Nfatc4 Nst in MSCs grown on silk scaffolds following treatment with Latrunculin A (LatA), Y-27632 (Y) and Blebbistatin (Bleb) for 24 h. Data represent three independent experiments per assay.
4. Disruption of stress fiber formation by blocking Rho/Rock Pathway signaling abolished silk scaffold induced MSCs tendon lineage differentiation. To determine the role of stress fibers in mediating silk fiber-induced MSC tenogenic differentiation, the impact of cell signaling on the regulation of stress fiber formation was examined.
Compared to untreated cells, cells that were exposed to the above treatment conditions lost their elongated phenotype (FIG. 6A). […] Therefore, the expression of Nfatc4 and Collal following treatment with Latrunculin A, Y-27632, and blebbistatin was also examined.

[2] = test system: MSCs grown on silk scaffolds; assay: effect of cytochalasin D on silk-fiber induced MSC teno-differentiation; format: cell-based
Excerpt: FIG. 5A-5I. Cytochalasin D disrupted actin cytoskeletal arrangement in cells attached to scaffold fibers and abolished the elongated cell body [(5A) vs (5B)] and associated nuclear shape change [(5C) vs (5D)]. […] (5G) Relative mRNA and (5H) western blot of Sex and Tnmd expression with (i) relative mRNA expression of the housekeeping genes Hrptl and Pgkl as an internal control. Data represent at least three independent experiments per assay. *P<0.05 compared to MSCs seeded on a scaffold without cytochalasin D. Scale bar=25 μm.
3. Actin polymerization is required for scaffold induced stem cell elongation and expression of tenogenesis markers Sex and Tnmd. To determine the role of cytoskeletal organization in the differentiation of MSCs into tenocytes when MSCs are grown on silk, the effect of cytochalasin D, which inhibits actin polymerization by capping the barbed ends of F-actin polymers was examined on silk-fiber induced MSC teno-differentiation. Differences in cell shape and cell nuclei were quantified by measuring the lengths of the cells that were growing in parallel with the fibers and were compared to the maximal widths of the cells, which were measured perpendicular to the fibers. […] Significant differences were found when quantifying the cytoplasmic (P<0.05) and nuclear (P<0.05) ratios (Fig. SE).
To determine whether actin polymerization in elongated cells is required for tenogenic differentiation, the effect of cytochalasin D was examined on tenogenic marker gene and protein expression in MSCs that were grown on silk scaffolds for 7 days. […] To determine whether the loss of Sex and Tnmd expression was due to specific effects produced by cytochalasin D on actin polymerization and cell morphology, rather than due to general toxicity related to gene expression, the expression levels of two housekeeping genes, Hypoxanthine-guanine phosphoribosyltransferase
1 (Hprtl) and phosphoglycerate kinase 1 (Pgkl), were analyzed.

[3] = MSCs grown on silk scaffolds for 7 days, compared to untreated controls
[4] = check for general toxicity related to gene expression
[5] = compared to untreated MSCs, P<0.05

| Structure (SMILES) | expression level of Coll al [1] | expression level of Nfatc4 [1] | expression level of SCX proteins [1] | expression level of Sex mRNAs [1] | Sex expression (immunocytochemistry, real-time PCR, western blot) [2, 3] | Tnmd expression (immunocytochemistry, real-time PCR, western blot) [2, 3] | elongated phenotype of the cells [2, 3] | expression level of housekeeping gene Hprtl [2, 4] | expression level of housekeeping gene Pgkl [2, 4] | length-to-width ratio of cytoplasm [2, 5] | length-to-width ratio of nuclei [2, 5] |
| --- | --- | --- | --- | --- | --- | --- | --- | --- | --- | --- | --- |
| C[C@@H](N)[C@H]1CC[C@H](C(=O)Nc2ccncc2)CC1 [Y-27632, Y-27632 dihydrochloride] | significantly decreased | significantly decreased | significantly decreased | significantly decreased | – | – | – | – | – | – | – |
| C/C1=C/C(=O)O[C@@H]2C[C@@H](CC[C@H](C)/C=C\C=C\CC1)O[C@@](O)([C@@H]1CSC(=O)N1)C2 [Latrunculin A] | significantly decreased | significantly decreased | significantly decreased | significantly decreased | – | – | – | – | – | – | – |
| C=C1[C@@H](C)[C@H]2[C@H](Cc3ccccc3)NC(=O)[C@]23[C@H](OC(C)=O)/C=C/[C@@](C)(O)C(=O)[C@@H](C)C/C=C/[C@H]3[C@@H]1O [cytochalasin D] | – | – | – | – | loss | loss | abolished | remained unchanged | remained unchanged | smaller | smaller |
| Cc1ccc2c(c1)C(=O)C1(O)CCN(c3ccccc3)C1=N2 (stereo not shown) [blebbistatin] | significantly decreased | significantly decreased | significantly decreased | significantly decreased | – | – | – | – | – | – | – |
